Measurements as given in patent US9885060B2, “Alkene production” (Evonik Degussa GmbH, priority 2015, dated 2018).

Key:
OleT [1] = experiment: Trapping, derivatization (Br2/DCM impinger) and quantification of 1-butene and 1-propene formed by the OleT-CamAB-FDH cascade; assay type: biochemical; conditions: 10 mM substrate, 10 ml scale
Method: FIG. 7 is a picture of a novel reaction set up for trapping volatile α-olefins, such as 1-propene and 1-butene. A small impinger containing 10 ml of a 20 mM Br2/DCM solution was placed on top of the flask serving as sole gas outlet and trap for α-olefin products. The functionality of this system was successfully confirmed using an analytical standard of 1-heptene. The concept for derivatization and trapping of volatile α-olefins is shown in Scheme 2.
Production of 1-propene and 1-butene was initially confirmed using manual headspace GC-MS injection. Since the quantification of 1-propene and 1-butene using analytical standards was not feasible, a novel trapping/derivatization system for highly volatile short-chain α-olefins derived from biocatalytic reactions was designed. […]
The obtained products were analyzed by GC-FID and GC-MS using analytical standards of 1,2-dibromobutane and 1,2-dibromopropane. Due to the (visible) gas exhaust (CO2 production by OleT and FDH) and strong evaporation of DCM (˜70% volume lost after 24 h), the residual volume in the impinger was determined to allow reliable product quantification. Calibration curves for 1,2-dibromobutane and 1,2-dibromopropane were prepared to allow quantification of produced 1-propene and 1-butene (not shown). […]

OleT [2] = experiment: Decarboxylation of FAs C22 to C4 employing the FDH-CamAB-OleT redox-cascade; assay type: biochemical; conditions: for Conversion / α-Olefin: 10 mM substrate
Method: Enzymatic reactions (1 mL scale) were quenched by addition of 100 μL 5 N Extraction of substrate and products was performed with 500 μL EtOAc containing 0.1% 1-decanol as internal standard. The organic phase was dried over anhydrous Na2SO4. Derivatization of carboxylic acids (fatty acids and hydroxy acids) to the corresponding methyl esters was achieved by mixing the organic phase with MeOH (2.5:1.5 v/v) followed by supplementation of 5 to 15 μL of 2 M TMSCHN2 (trimethylsilyldiazomethane in diethyl ether). The mixture was incubated for 30 min, 25° C. and 750 rpm before injection into GC-FID or GC-MS, Extraction and derivatization of products and substrates from conversion of short chain FAs ([…]) was performed using the same protocol but all steps were performed on ice to prevent undesired loss of volatile products.
Products from FA substrates with chain lengths ranging from C22 to C10 were separated on a HP5 column (Programm) and detected by GC-FID or GC-MS. Extracted products from conversion of nonanoic acid (I-octene as product) were separated on a DB1702 column (Programm) and detected by GC-FID. Authentic standards of substrates and terminal olefins were treated as described above and were used as references for identification and preparation of calibration curves. Detection of volatile short chain terminal olefins (1-butene/1-propene [ongoing] to 1-heptene) was accomplished by manual injection from vial headspaces into GC-MS, in order to prevent loss of products, the vials containing the reaction mixtures were sealed with a PTFE septum. After conversion the closed vial was heated for 10 min at 80° C., together with a 10 ml syringe (TYPE). From the headspace 2 to 9 μl volumes were injected splitless into a GC-MS chromatograph and analytes were separated on a HP5 column (Programm). Calibration curves for 1-pentene, 1-hexene and 1-heptene were prepared in the same way at 4° C. and using 5% DMF as cosolvent.
The substrate scope of OleT was further investigated by varying the FA chain length from C3 to C22. […] For the first time, short EAs could be decarboxylated to the corresponding olefins, covering the whole spectrum from C11 down to C4. […] Due to the high volatility of short chain olefins, product work up was done at 4° C. […] (2.53 mM product from 5 mM lauric acid). Head-space analysis by GC-MS from reactions with short chain FAs (C8-C5) confirmed the formation of the respective α-olefins, allowing the first biotechnological access to 1-heptene, 1-hexene and 1-pentene and 1-butene with OleT.
Conversion of heptanoic acid was carried out as described in Example 4 using the OleTCamAB-FDH reaction cascade.
Calibration curves for 1-hexene were prepared accordingly ranging from 0.05 to 2 mM. Due to a strong overlap of […] with the peak areas of CO2 and EtOH (FIG. 1, peaks a, b and c) the ion extraction mode of the GC-MS to generate reliable calibration curves was used. Neither CO2 nor EtOH interfered with the product peak area. This can be seen comparing FIGS. 1 and 5 which allow reliable and linear quantification of 1-hexene (FIG. 6) using manual headspace GC-MS injection.
Manual headspace injection into GC-MS was successfully performed for all substrates with chain lengths of C11 to C6. Conversion of 10 mM heptanoic acid allowed reliable formation of up to 1.3 mM 1-hexene without further optimization of the reaction conditions.

Row | Compound | α-olefin formed (trapped as 1,2-dibromoalkane) (OleT [1]) | Conversion (OleT [2]; 25 °C, 24 h) | α-Olefin (OleT [2]; 25 °C, 24 h) | Conversion (OleT [2]; 4 °C, 72 h) | α-Olefin (OleT [2]; 4 °C, 72 h) | formation of 1-hexene (OleT [2]; 10 mM heptanoic acid, manual headspace GC-MS)
1 | CCCC(=O)O [C4, butyric acid] | 504 µM | 5% | 504 µM |  |  | 
2 | CCCCC(=O)O [C5, valeric acid] | 834 µM | 8.3% | 834 µM |  |  | 
3 | CCCCCC(=O)O [C6, caproic acid/hexanoic acid] |  | 12% | 1170 µM | 7.7% | 772 µM | 
4 | CCCCCCC(=O)O [C7, heptanoic acid] |  | 13% | 1298 µM | 9.5% | 946 µM | up to 1.3 mM
5 | CCCCCCCC(=O)O [C8, caprylic acid/octanoic acid] |  | 3.6% | 364 µM | 1.4% | 141 µM | 
